The source of these data is US9073857B2, “Aripiprazole type I microcrystal, aripiprazole solid preparations, and preparation method” (SHANGHAI ZHONGXI PHARMACEUTICAL CORPORATION, priority 2011, dated 2015).

Test in the first series: not given
The note with it: within 45 minutes; disclosed at the Japan and South Korea Analytical Chemistry Annual Meeting in 1998; cited from earlier work.
`O=C1CCc2ccc(OCCCCN3CCN(c4cccc(Cl)c4Cl)CC3)cc2N1` [aripiprazole type I crystal, aripiprazole]: the dissolution rate entry was “less than 70%”.

A further series in a line: Particle size by laser particle size distribution analyzer. The note with it: Effect Example 2; microcrystals of the Examples. It is filed as physicochemical. The protocol: Measure the particle size of aripiprazole in the sample by the following methods, and compare the particle size of aripiprazole in different prescriptions and under different operating conditions.
Test Instrument: BT˜9300S laser particle size distribution analyzer (Dandong Baxter technology Co., Ltd); BT˜800 automatic loop sampling system.
Test conditions: the medium of the loop sampling system is water, with the volume of about 570 ml, and the centrifugal pump speed is 1600 rpm.
Test Method: add appropriate amount of the samples into the loop sampling system, and make the absorbance of the system up to 15%±10, turn on the ultrasonic dispersion for 3 min, continuous sample for 6 times, and gain the average particle size.
1. Dissolve 10 g aripiprazole into aqueous ethanol solution containing hydrochloric acid (the molar ratio of hydrochloric acid to aripiprazole is 1.1, the concentration of the aqueous ethanol solution is 95%, the mass of the aqueous ethanol solution is 30 g), quickly add the 10% aqueous sodium hydroxide (the molar ratio of sodium hydroxide to hydrochloric acid is 1.01) all at once while stirring. Stir for 5 min then add 100 g water, stir again for 5 min, filter the precipitated crystal, wash twice with 20 g water each time and filter each time, dry the crystal at 80° C. for 4 hours, then obtain the aripiprazole microcrystal.
2. Dissolve 10 g aripiprazole into aqueous ethanol solution with hydrochloric acid (the molar ratio of hydrochloric acid to aripiprazole is 1.02), quickly add the 10% aqueous sodium hydroxide (the molar ratio of sodium hydroxide to hydrochloric acid is 1.0) all at once while stirring (with stirring linear speed of 160 m/min). Stir for 5 min then add 100 g water, stir again for 5 min, filter the precipitated crystal, wash twice with 20 g water each time and filter each time, dry the crystals at 80° C. for 4 hours, then obtain the aripiprazole microcrystal.
3. Dissolve 10 g aripiprazole into aqueous ethanol solution with hydrochloric acid (2.3 g 36% hydrochloric acid, 28.5 g anhydrous ethanol. The concentration of the aqueous ethanol solution is 95%), add the 10% aqueous sodium hydroxide (the molar ratio of sodium hydroxide to hydrochloric acid is 1.0) while stirring (with stirring linear speed of 160 m/min). Stir for 5 min then add 100 g water, stir again for 5 min, filter the precipitated crystal, wash twice with 20 g water each time and filter each time, dry the crystal at 80° C. for 4 hours, then obtain the aripiprazole microcrystal.
`O=C1CCc2ccc(OCCCCN3CCN(c4cccc(Cl)c4Cl)CC3)cc2N1` [Example 4, aripiprazole]: the “particle size D10” value is given as 1.18 micron, the “particle size D50” value was 8.78 micron, the “particle size D90” value was determined as 24.78 micron and the “particle size D[4,3]” value is on record as 10.99 micron.
`O=C1CCc2ccc(OCCCCN3CCN(c4cccc(Cl)c4Cl)CC3)cc2N1` [Example 2, aripiprazole]: the “particle size D10” value amounted to 1.85 micron, the “particle size D50” value was determined as 10.91 micron, the “particle size D90” value is 29.82 micron and the “particle size D[4,3]” value worked out at 14.17 micron.
`O=C1CCc2ccc(OCCCCN3CCN(c4cccc(Cl)c4Cl)CC3)cc2N1` [Example 3, aripiprazole]: the “particle size D10” value is 1.43 micron, the “particle size D50” value came to 11.64 micron, the “particle size D90” value turned out to be 34.65 micron and the “particle size D[4,3]” value is on record as 15.64 micron.
Take `O=C1CCc2ccc(OCCCCN3CCN(c4cccc(Cl)c4Cl)CC3)cc2N1` [Example 24, aripiprazole]: the “particle size D10” value amounted to 1.00 micron, the “particle size D50” value is recorded as 3.93 micron, the “particle size D90” value came to 8.7 micron and the “particle size D[4,3]” value was 4.73 micron.
Consider `O=C1CCc2ccc(OCCCCN3CCN(c4cccc(Cl)c4Cl)CC3)cc2N1` [Example 23, aripiprazole], for which the “particle size D10” value is on record as 1.52 micron, the “particle size D50” value is 9.67 micron, the “particle size D90” value is reported as 32.17 micron and the “particle size D[4,3]” value was 13.42 micron.
Regarding `O=C1CCc2ccc(OCCCCN3CCN(c4cccc(Cl)c4Cl)CC3)cc2N1` [Example 5, aripiprazole], the “particle size D10” value came out at 0.74 micron, the “particle size D50” value stood at 4.75 micron, the “particle size D90” value turned out to be 16.34 micron and the “particle size D[4,3]” value was found to be 6.79 micron.
With `O=C1CCc2ccc(OCCCCN3CCN(c4cccc(Cl)c4Cl)CC3)cc2N1` [Contrastive Example 1, aripiprazole], the “particle size D10” value stood at 9.31 micron, the “particle size D50” value was 29.85 micron, the “particle size D90” value is recorded as 60.39 micron and the “particle size D[4,3]” value was 32.85 micron.

Still in this series, the particulars now being: starting aripiprazole microcrystals of Example 1.
Take `O=C1CCc2ccc(OCCCCN3CCN(c4cccc(Cl)c4Cl)CC3)cc2N1` [aripiprazole microcrystals, aripiprazole]: the “D[4,3]” value came out at 32.85 mircon.

Test in the next series: not given
To be noted: crushed by the universal grinder through mechanical pulverization; cited from earlier work.
With `O=C1CCc2ccc(OCCCCN3CCN(c4cccc(Cl)c4Cl)CC3)cc2N1` [aripiprazole, 7-[4-[4-(2,3-dichlorophenyl)-1-piperazinyl]butoxy]-3,4-dihydro-2(1H)-quinolinone], the average particle size entry is reported as “about 100 micron”.
